In paper PMC4964461, “Synthesis and Evaluation of Tricarbonyl ^99mTc-Labeled 2-(4-Chloro)phenyl-imidazo[1,2-a]pyridine Analogs as Novel SPECT Imaging Radiotracer for TSPO-Rich Cancer” (International Journal of Molecular Sciences, 2016):

Target: T1, 18-kDa translocator protein (TSPO) (Rattus norvegicus, UniProt P16257)
T1 construct: native TSPO in rat C6 glioma cell membranes
Test: [3H]-PK […] radioligand displacement on C6 glioma membrane extracts
Type: binding
Conditions: read-out: Ki (nM) for TSPO

SMILES | Ki [nM]
CCCN(CCC)C(=O)Cc1c(-c2ccc(Cl)cc2)nc2c(NC(=O)C[N+]34Cc5cccc[n+]5[Re-5]3([C]#[O+])([C]#[O+])([C]#[O+])[n+]3ccccc3C4)cccn12 (centres unmarked) [compound 2, Re-CB256] | 159 ± 8.7
CCCN(CCC)C(=O)Cc1c(-c2ccc(Cl)cc2)nc2c(NC(=O)CN(Cc3ccccn3)Cc3ccccn3)cccn12 [compound 3] | 148 ± 11.3
